Several values for one entry are separate records, joined by “and”; a condition that tells them apart may be missing. Equal entries are not always repeated. Structures can show the parent of a compound that is named as a salt.
System: tomato leaf transpiration
Test: tomato leaf transpiration inhibition (porometer, normalized to water-sprayed plants)
Type: in vivo, Tomato (variety: Rutgers)

CC1=CC(=O)CC(C)(C)[C@@]1(O)/C=C/C(C)=C\C(=O)O [ABA ammonium salt, Ammonium Salt of (S)-(+)-Abscisic Acid]
Transpiration rate (% of control) (in vivo): 57 % of control and 67 % of control and 78 % of control and 76 % of control and 88 % of control
Transpiration rate (% of control), Average (in vivo): 68 % of control and 81 % of control

(S)-5-(1-hydroxy-2,6,6,-trimethyl-4-oxo-2-cyclohexen-1-yl)-3-methyl-(2Z,4E)-pentadienoic acid [ABA, reference compound]
Transpiration rate (% of control), Average (in vivo): 69 % of control and 78 % of control

NC(N)=O [Urea, urea]
Transpiration rate (% of control) (1 mM urea alone, foliar, 1 day after treatment): 103 % of control
Transpiration rate (% of control) (1 mM urea alone, foliar, 2 days after treatment): 98 % of control
Transpiration rate (% of control) (1 mM urea alone, foliar, 3 days after treatment): 98 % of control
Transpiration rate (% of control) (1 mM urea alone, foliar, 4 days after treatment): 100 % of control
Transpiration rate (% of control) (10 mM urea alone, foliar, 1 day after treatment): 101 % of control
Transpiration rate (% of control) (10 mM urea alone, foliar, 2 days after treatment): 103 % of control
Transpiration rate (% of control) (10 mM urea alone, foliar, 3 days after treatment): 106 % of control
Transpiration rate (% of control) (10 mM urea alone, foliar, 4 days after treatment): 101 % of control
Transpiration rate (% of control) (100 mM urea alone, foliar, 1 day after treatment): 102 % of control
Transpiration rate (% of control) (100 mM urea alone, foliar, 2 days after treatment): 102 % of control
Transpiration rate (% of control) (100 mM urea alone, foliar, 3 days after treatment): 107 % of control
Transpiration rate (% of control) (100 mM urea alone, foliar, 4 days after treatment): 102 % of control
effect on tomato leaf transpiration (in words) (fertilizer or salt alone at 1, 10 or 100 mM, foliar): did not reduce tomato leaf transpiration

[Ca+2].[Cl-].[Cl-] [CaCl2, calcium chloride]
Transpiration rate (% of control) (in vivo): 97 % of control and 101 % of control and 98 % of control
effect on tomato leaf transpiration (in words) (in vivo): did not affect tomato leaf transpiration

Source: patent US7837757B2, “Enhanced abscisic acid and fertilizer performance” (Valent BioSciences Corporation, priority 2007, dated 2010)
